Assays:
[1] = Phase 1 SAD study, pharmacokinetics in healthy volunteers; type: in vivo, human
Description: (§1) This Phase 1, first-in-human, double-blind, randomized, placebo-controlled study will evaluate the safety of Compound 1 in healthy volunteers as well as the relationship between exposure and pharmacodynamic (PD) parameters, including ACTH-stimulated and endogenous cortisol secretion measured in blood, saliva, and urine. Results will be used to inform endpoints and other parameters in future later studies in patients with Cushing's disease (CD) or other diseases of excess adrenocorticotropic hormone (ACTH), including Congenital Adrenal Hyperplasia (CAH) and Ectopic ACTH Syndrome (EAS).
(§2) SAD/Part 1: ascending single dose, randomized, placebo-controlled, double-blind; 5 planned and up to 8 total cohorts, n=64. In each cohort, 6 subjects will receive Compound 1, 2 subjects will receive the placebo. Doses will escalate from 10 mg in cohort 1 to no more than 250 mg.
Data shown are mean±SEM. All doses n=6. Cohort 4 (n=6, 80 mg) was evaluated in the high dose ACTH-stimulation test, while cohort 5 (n=6, 80 mg) was evaluated in the low dose ACTH-stimulation test.

[2] = system: calcium channel L-type (phenylalkylamine); assay: SafetyScreen panel: calcium channel L-type; type: binding; details: 10 μM
Procedure: (§3) Compound 1 was tested at Eurofins Panlabs Discovery Services Taiwan, Ltd. for evaluation in their SafetyScreen™ panel of assays. This included selectivity assays at 87 targets including G-protein coupled receptors, nuclear receptors, other cell surface receptors, ion channels, enzymes, and transporters.

[3] = system: 87 targets including G-protein coupled receptors, nuclear receptors, other cell surface receptors, ion channels, enzymes, and transporters; assay: Eurofins Panlabs SafetyScreen off-target selectivity panel; details: single concentration 10 μM
Procedure: as §3

[4] = system: serotonin 5-hydroxytryptamine 1B receptor (5-HT1B); assay: SafetyScreen panel: 5-HT1B; type: binding; details: 10 μM
Procedure: as §3

[5] = system: basal and ACTH-stimulated cortisol; assay: Phase 1 SAD study, basal cortisol and ACTH-stimulation test; type: in vivo, human; details: for % suppression in cortisol AUC: high dose ACTH (250 mcg) challenge
Description: as §1, §2
ACTH-stimulation tests are conducted while fasting. For PD analyses, blood samples are collected for measurement of serum cortisol, A4, 17-OHP, aldosterone, and DHEA. A summary of the procedure is as follows: In the “high dose” test, each subject is administered an IV 250 μg dose (for subjects >37 lbs) of cosyntropin (ACTH(1-24)) at the start of each test; in the “low dose” test, 1 mcg is administered instead. At 2 hours after study drug dosing/Time 0 (±5 minutes), collect blood sample. Within 5 minutes, administer cosyntropin IV infusion over 2 minutes. Collect blood sample at Time 30 minutes (5 minutes). Collect blood sample at Time 60 minutes (5 minutes).
Starting on Day −1 until EOS (or ET), fasting pre-dose blood samples are collected <15 minutes prior to dosing (˜0800 hr) for measurement of serum cortisol, A4, 17-OHP, aldosterone, ACTH(1 39), renin, and DHEAS. On Days in which ACTH-stimulation tests are conducted, these tests are done approximately 2 hours post-study drug dosing. Prior to cosyntropin administration, at 2 hours (15 minutes) post-dose, blood samples are collected for measurement of cortisol, A4, 17-OHP, aldosterone, and DHEA. Cosyntropin is then administered to define time 0 of the ACTH-stimulation test. At 2.5 hours (15 minutes) post-dose/30 minutes post-cosyntropin, blood samples are collected for measurement of cortisol. At 3 hours (15 minutes) post-dose/60 minutes post-cosyntropin, blood samples are collected for measurement of cortisol, A4, 17-OHP, aldosterone, and DHEA.
Compound 1 was also evaluated in the context of an ACTH-Stimulation Test, with oral Compound 1 or placebo being administered prior to the intravenous (IV) administration of cosyntropin (ACTH(1-24)). In the absence of pharmacologic intervention, IV administration of ACTH leads to the secretion of cortisol; whereas the pharmacologic intervention can suppress secretion of […] cortisol levels.

[6] = system: basal and ACTH-stimulated cortisol; assay: Phase 1 MAD study, basal and ACTH-stimulated cortisol; type: in vivo, human
Description: as §1
MAD/Part 2: multiple ascending dose, randomized, placebo-controlled, double-blind; 2 planned and up to 4 total cohorts (n=36). In each cohort, 6 subjects will receive Compound 1, 3 subjects will receive the placebo. The doses will not exceed the doses in the SAD.
Starting on Day −1 until EOS (or ET), fasting pre-dose blood samples are collected <15 minutes prior to dosing for measurement of serum cortisol, A4, 17-OHP, aldosterone, ACTH(1 39), renin, and DHEAS. […] Cosyntropin is then administered (250 mcg in the “high dose” test; 1 mcg in the “low dose” test) to define time 0 of the ACTH-stimulation test. […]
At Screening and on Days 2, 3, 5, 6, 7, 8, 10, 11, and 12, fasting blood samples are collected for measurement of serum cortisol at 4 hours (15 minutes) post-dose (˜1200 hr). On Days in which the ACTH-stimulation test is conducted, this collection will be 120 min post-cosyntropin administration such that post-cosyntropin cortisol collection times are Time 30 minutes (5 minutes), Time 60 minutes (5 minutes), and Time 120 minutes (5 minutes).
A 24-hour blood biomarker profile is measured starting Day −1 until Day 1 pre-dose, Day 1 post-dose until Day 2 pre-dose, Day 4 post-dose until Day 5 pre-dose, and Day 9 post-dose until Day 10 pre-dose.

Question: With `CCOc1ccccc1-c1ccc(N2CCN(C(=O)C3(C(F)(F)F)CCC3)C[C@H]2CC)c(C(=O)N[C@@H]2CN3CCC2CC3)n1` [Compound 1, 6-(2-ethoxyphenyl)-3-((R)-2-ethyl-4-(1-(trifluoromethyl)cyclobutane-1-carbonyl)piperazin-1-yl)-N—((S)-quinuclidin-3-yl)picolinamide] as the molecule, how does the Tmax ([1]; human, in vivo, single oral dose, at efficacious doses) read?
Answer: ~1 h

Question: What about the half-life ([1]; human, in vivo, single oral dose, healthy volunteers) of the same molecule?
Answer: ~1440 min

Question: What about the “oral bioavailability / exposure” value ([1]; single ascending oral doses) of the same molecule?
Answer: oral bioavailability with dose-proportional exposure

Question: And the inhibition/activity [2]?
Answer: > 70%

Question: What about the “activity across the panel” value [3] of the same molecule?
Answer: little activity across the panel

Question: What about the inhibition/activity [4] of the same molecule?
Answer: > 70%

Question: And the “% suppression in cortisol AUC” value ([5]; 10 mg)?
Answer: about 9%

Question: What about the “% suppression in cortisol AUC” value ([5]; 20 mg) of the same molecule?
Answer: about 22%

Question: What about the “% suppression in cortisol AUC” value ([5]; 40 mg) of the same molecule?
Answer: about 36%

Question: And the “acute reduction of basal cortisol” value ([5]; 80 mg, 2 hours after administration)?
Answer: 56%

Question: And the “% suppression in cortisol AUC” value ([5]; 80 mg)?
Answer: about 41%

Question: What about the “reduction in cortisol levels” value ([5]; 80 mg, low dose ACTH (1 mcg) stimulation challenge) of the same molecule?
Answer: 48%

Question: And the “basal and ACTH-stimulated cortisol secretion” value ([6]; 4 h post-dose throughout the MAD study)?
Answer: suppressed basal and ACTH-stimulated cortisol secretion

Question: What about the basal unstimulated cortisol ([6]; at 24 hours (before the next dose)) of the same molecule?
Answer: suppression of basal unstimulated cortisol was not observed

Question: And the “basal and ACTH-stimulated cortisol levels” value ([6]; high dose ACTH-stimulation test, after 10 days of dosing)?
Answer: suppressed basal and ACTH-stimulated cortisol levels

Reference: patent US12280046B2, “Melanocortin subtype-2 receptor (MC2R) antagonist for the treatment of disease” (Crinetics Pharmaceuticals, Inc., priority 2021, dated 2025)
